The target of one experiment is T1, PI3Kδ (p110δ/p85α) (Homo sapiens, UniProt O00329).
T1 construct: purchased Millipore (Bedford, Mass.)
Put plainly: PI3Kδ scintillation proximity assay. Conditions: separated isomer. The class given is biochemical. The essentials:
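Purified p110δ/p85α (4 nM) phosphorylated 20 μM diC8-PIP2 with 20 μM ATP plus [γ-33P]ATP in MOPS pH 6.7, MgCl2, DTT, CHAPS, 0.5% DMSO, 210 minutes at room temperature. Stopped with EDTA/ATP quench containing WGA SPA beads; scintillation counted. IC50 from percent control activity versus log inhibitor concentration.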

For experiment [1], the system named is Pfeiffer cell line (diffuse large B cell lymphoma). Put plainly: Pfeiffer cell proliferation assay. It is filed as cell-based. The settings on record: Homo sapiens, Pfeiffer. The procedure:
Pfeiffer cell line (diffuse large B cell lymphoma) was purchased from ATCC (Manassas, Va.) and maintained in the culture medium recommended (RPMI and 10% FBS). To measure the anti-proliferation activity of the compounds, the Pfeiffer cells were plated with the culture medium (2×10^3 cells/well/per 200 μl) into 96-well ultra-low binding plates (Corning, Corning, N.Y.), in the presence or absence of a concentration range of test compounds. […]

Each structure is given as a SMILES string.

T1 sequence (O00329 whole entry): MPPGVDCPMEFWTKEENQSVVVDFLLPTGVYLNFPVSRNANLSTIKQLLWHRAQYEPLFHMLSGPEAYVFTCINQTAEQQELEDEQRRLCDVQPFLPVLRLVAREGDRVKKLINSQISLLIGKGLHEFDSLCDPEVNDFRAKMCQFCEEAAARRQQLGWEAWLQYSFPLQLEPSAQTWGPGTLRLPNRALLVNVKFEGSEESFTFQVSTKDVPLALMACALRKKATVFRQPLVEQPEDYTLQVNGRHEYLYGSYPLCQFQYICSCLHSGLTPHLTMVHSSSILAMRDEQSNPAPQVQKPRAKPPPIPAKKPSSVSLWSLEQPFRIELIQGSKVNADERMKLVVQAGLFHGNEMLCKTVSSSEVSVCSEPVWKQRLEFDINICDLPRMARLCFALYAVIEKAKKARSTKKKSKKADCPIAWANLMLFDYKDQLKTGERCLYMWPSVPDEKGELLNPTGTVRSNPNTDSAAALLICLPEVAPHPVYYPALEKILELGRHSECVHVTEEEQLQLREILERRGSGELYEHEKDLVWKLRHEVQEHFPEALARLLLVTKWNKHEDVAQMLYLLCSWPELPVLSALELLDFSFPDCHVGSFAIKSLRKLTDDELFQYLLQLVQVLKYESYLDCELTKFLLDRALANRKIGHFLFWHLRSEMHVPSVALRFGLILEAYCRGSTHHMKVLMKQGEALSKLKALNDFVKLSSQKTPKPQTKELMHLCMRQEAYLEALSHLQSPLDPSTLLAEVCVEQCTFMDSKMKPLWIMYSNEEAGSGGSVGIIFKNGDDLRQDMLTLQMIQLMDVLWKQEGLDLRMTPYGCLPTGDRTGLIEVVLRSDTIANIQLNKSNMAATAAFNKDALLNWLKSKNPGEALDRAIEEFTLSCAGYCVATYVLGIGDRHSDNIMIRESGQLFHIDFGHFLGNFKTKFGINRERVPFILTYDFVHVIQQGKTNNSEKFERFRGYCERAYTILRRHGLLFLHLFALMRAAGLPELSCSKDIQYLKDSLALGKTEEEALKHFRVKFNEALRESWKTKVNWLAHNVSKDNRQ
T1 sequence (P27986 whole entry partner): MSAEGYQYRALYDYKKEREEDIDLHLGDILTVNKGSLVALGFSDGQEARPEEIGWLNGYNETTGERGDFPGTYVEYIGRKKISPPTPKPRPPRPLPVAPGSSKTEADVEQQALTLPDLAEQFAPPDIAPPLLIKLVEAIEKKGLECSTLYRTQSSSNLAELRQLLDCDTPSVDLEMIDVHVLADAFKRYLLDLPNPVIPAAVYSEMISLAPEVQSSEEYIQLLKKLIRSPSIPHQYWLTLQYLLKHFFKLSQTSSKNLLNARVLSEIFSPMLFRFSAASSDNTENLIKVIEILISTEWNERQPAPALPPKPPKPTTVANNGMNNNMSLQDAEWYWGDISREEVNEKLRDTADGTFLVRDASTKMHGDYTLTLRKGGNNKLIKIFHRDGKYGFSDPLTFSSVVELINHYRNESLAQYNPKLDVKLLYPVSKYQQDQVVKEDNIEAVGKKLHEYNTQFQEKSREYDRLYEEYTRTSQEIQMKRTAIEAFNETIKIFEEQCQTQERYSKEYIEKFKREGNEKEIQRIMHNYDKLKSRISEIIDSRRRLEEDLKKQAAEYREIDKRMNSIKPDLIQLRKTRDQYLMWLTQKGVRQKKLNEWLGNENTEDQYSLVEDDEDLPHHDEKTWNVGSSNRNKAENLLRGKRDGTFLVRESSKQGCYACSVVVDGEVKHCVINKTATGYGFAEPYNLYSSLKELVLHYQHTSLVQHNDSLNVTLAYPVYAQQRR

By IC50 is commonly meant the concentration needed to halve the response being measured. For the compound `COC(=O)N[C@H]1CCN(c2c(C(C)Nc3ncnc4[nH]cnc34)cc(Cl)c3cccnc23)C1` (stereo partly drawn) [Example 79, Methyl((3S)-1-{5-Chloro-7-[1-(9H-purin-6-ylamino)ethyl]quinolin-8-yl}pyrrolidin-3-yl)carbamate tris(trifluoroacetate)], the IC50 against PI3Kδ (p110δ/p85α) (1st peak) was 50 to 100 nM; at PI3Kδ (p110δ/p85α) (2nd peak) it was less than 50 nM; in experiment [1] (first of two isolated isomers), 250 to 500 nM; in experiment [1] (second of two isolated isomers), 100 to 250 nM.

Consider `CC(Nc1ncnc2[nH]cnc12)c1cc(Cl)c2cccnc2c1N1CC[C@H](NS(C)(=O)=O)C1` (stereo partly drawn) [Example 80, N-((3S)-1-{5-Chloro-7-[1-(9H-purin-6-ylamino)ethyl]quinolin-8-yl}pyrrolidin-3-yl)methanesulfonamide tris(trifluoroacetate)], for which the values for the IC50 (against PI3Kδ (p110δ/p85α) (1st peak); against PI3Kδ (p110δ/p85α) (2nd peak); in experiment [1] (second of two isolated isomers)) were 250 to 500 nM, less than 50 nM and 100 to 250 nM, respectively.

Values taken from patent US8680108B2, “Substituted fused aryl and heteroaryl derivatives as PI3K inhibitors” (Incyte Corporation, priority 2009, dated 2014).
